Earlier results as cited in US9675585B1, “Extended release pharmaceutical formulations” (Ezra Pharma, priority 2016, dated 2017).

time after which plasma concentration reaches very low level (following Cmax): 10 to 12 h | Tmax (oral administration): 2 to 4 h
SMILES: CCCCC(=O)N(Cc1ccc(-c2ccccc2-c2nnn[nH]2)cc1)[C@H](C(=O)O)C(C)C [valsartan]
